Reference: US11998610B2, “Conjugates and methods of using the same” (Flagship Pioneering Innovations V, Inc., priority 2018, dated 2024)
Non-standard residues stand in square brackets, D forms with d. Residues, ends and D or L forms follow the SMILES beside them. *: point of attachment. Butyryl = CCCC(=O)*

What was measured:
[1] = Stability of conjugates in Simulated Intestinal Fluid (SIF); assay type: in vitro ADME; details: simulated intestinal fluid pH 6.7 with pancreatin, 1 μM, 37° C.
Experimental: Assay 2. Stability of conjugates in Simulated Intestinal Fluid (SIF). This assay was used to assess the stability of a conjugate in a small intestine. Phosphate buffer was prepared by dissolving 0.42 g of sodium hydroxide pellets and 3.95 g of monobasic sodium phosphate monohydrate and 6.19 g of sodium chloride in ultrapure water (MilliQ®, Millipore Sigma, Darmstadt, Germany). The pH was adjusted to 6.7 using aq. HCl and aq. NaOH, as necessary, and the solution was diluted with ultrapure water to produce 1 L of the pH 6.7 buffer. 112 mg FaSSIF powder (Biorelevant™, London, UK) was dissolved in 50 mL of the pH 6.7 buffer. 2 to 3 mL of the resulting solution were then added to 500 mg pancreatin (Millipore Sigma, Darmstadt, Germany). The resulting mixture was agitated by finger tapping the vessel containing the mixture until milky suspension formed. At this time, the remainder of the 50 mL FaSSiF/pH 6.7 buffer solution was added. The resulting suspension was flipped upside down 10 times to produce SIF, which was used fresh. Test compounds were dissolved in DMSO stock to 1 mM. An aliquot of the DMSO stock solution was removed and diluted in the SIF media in 15 mL falcon tubes to produce a mixture with a tested compound concentration of 1 μM. A 1 mL aliquot was immediately removed and diluted once with 1 volume of acetonitrile for T0 timepoint. The mixture was sealed and agitated at 37° C. in an incubator. Aliquots (1 mL) were removed at regular intervals and immediately quenched by the addition of 1 volume of acetonitrile. The resulting samples were analyzed by LC/MS to determine degradation rates

E. coli BL21(DE3) = assay: Cell-based assay with ClbP with LCMS, ClbP negative strain; details: 10 μM compound, 37° C., 20 h
Experimental: (§1) This example is representative of the methods described in Example 97. ClbP was tested for its ability to activate compounds. […] Each of these three strains was struck out onto an appropriate solid media such as LB agar or BHI agar. The bacteria were then grown aerobically overnight at 37° C.
(§2) A single colony was isolated from the plate and inoculated into 10 mL LB. The liquid cultures were grown overnight aerobically at 37° C. with rocking on a nutator.
(§3) The saturated E. coli cultures were transferred into a biosafety cabinet. 5 μL of each culture was inoculated into fresh LB broth (200 μL total, 1:40 (v/v) dilution of the overnight culture), and the tested compound was added to a final concentration of 10 μM. To establish the native stability of the compound in media alone, the compound was also added to uninoculated media at a final concentration of 10 μM. Each compound was tested in duplicate with each strain or the media-alone incubation. The plate was sealed and incubated aerobically on a nutator at 37° C. for 20 h.
(§4) After 20 h, the reactions were stopped by addition of 200 μL acetonitrile. The contents of each well were mixed, and then the plate was centrifuged (4,000 rpm, 10 min). The plate was diluted serially to a final dilution of 1:100 first with Acetonitrile (10× dilution) and then with (4:1) Mobile Phase A-20 mM ammonium formate+water:Mobile Phase B-Isopropanol:Methanol:Water (4:4:2)+20 mM ammonium formate (10× dilution).
(§5) The amount of each remaining parent compound in each incubation was quantified by LC-MS analysis, with multiple-reaction monitoring targeting transitions specific to each parent compound.
(§6) The amount of compound present in the media-alone condition was normalized to 100%. The amount of parent compound present in the reaction with the ClbP-encoding E. coli (E. coli CFT073 ATCC 700928 and/or E. coli Nissle 1917) was compared to the amount present in the media-alone and expressed as a percent. Likewise, the amount of parent compound present in the reaction with the negative control E. coli BL21(DE3) was compared to the amount present in the media-alone and expressed as a percent.
(§7) In an ideal case, the amount of residual starting material in the reaction(s) with ClbP-encoding E. coli was <25% of the amount in the E. coli BL21(DE3) and media-alone conditions. In an acceptable case, the amount of residual starting material in the reaction(s) with ClbP-encoding E. coli was 25-75% of the amount in the E. coli BL21(DE3) and media-alone conditions. In a non-preferred case, the amount of residual starting material in the reaction(s) with ClbP-encoding E. coli was >75% of the amount in the E. coli BL21(DE3) and media-alone conditions.

[2] = In vitro Colonic Material Stability Assay; assay type: in vitro ADME; details: for Assay 3 (% Remaining at 24 h): colonic material slurry, anaerobic, 1 or 10 μM
Experimental: Assay 3 In vitro Colonic Material Stability Assay. This assay was used to assess the stability of an acylated active agent in a large intestine. All experiments were performed in an anaerobic chamber containing 90% nitrogen, 5% hydrogen and 5% carbon dioxide. Colonic material was resuspended as a slurry (15% w/v final concentration) in pre-reduced, anaerobically sterilized dilution blanks (Anaerobe Systems AS-908). The colonic material was then inoculated into 96 well plates containing YCFAC media (Anaerobe Systems AS-680) or other suitable media (6.7 μL slurry into 1 mL total media). Compounds or groups of compounds were added to each individual well to reach a final analyte concentration of 1 or 10 μM, and the material was mixed by pipetting. Sample was removed after set timepoints (0, 120, 240, 480, 1440, 2880 minutes after initiation of the assay), quenched with acetonitrile containing internal standard, and analyzed by LC/MS.

[3] = Stability of conjugates in Simulated Gastric Fluid (SGF); assay type: in vitro ADME; details: simulated gastric fluid pH 1.6 with pepsin, 1 μM, 37° C.
Experimental: Assay 1. Stability of conjugates in Simulated Gastric Fluid (SGF). This assay was used to assess the stability of a conjugate in a stomach. Medium was prepared by dissolving 2 g of sodium chloride in 0.6 L in ultrapure water (MilliQ®, Millipore Sigma, Darmstadt, Germany). The pH was adjusted to 1.6 with 1N hydrochloric acid, and the volume was then adjusted to 1 L with purified water. 60 mg FaSSIF powder (Biorelevant™, London, UK) were dissolved in 500 mL buffer (above). Pepsin was added (0.1 mg/mL) (Millipore Sigma, Darmstadt, Germany), and the solution was stirred. The resulting SGF media were used fresh for each experiment. Test compounds were dissolved in DMSO stock to 1 mM. An aliquot of the DMSO stock solution was removed and diluted in the SGF Media in 15 mL falcon tubes to generate a total compound concentration of 1 μM. A 1 mL aliquot was immediately removed and diluted once with 1 volume of acetonitrile for T0 timepoint. The mixture was sealed and mixed at 37° C. in an incubator. Aliquots (1 mL) were removed at regular intervals and immediately quenched by the addition of 1 volume of acetonitrile. The resulting samples were analyzed by LC/MS to determine degradation rates in SGF.

[4] = test system: E. coli CFT073 ATCC 700928 and/or E. coli Nissle 1917; assay: Cell-based assay with ClbP with LCMS, ClbP positive strain; details: ClbP-encoding E. coli, 10 μM compound, 37° C., 20 h
Experimental: as §1, §2, §3, §4, §5, §6, §7

Row | SMILES | Assay 2 (SIF) (% @ Remaining 4 hours) [1] | % Remaining in ClbP Negative Relative to Media-Only (E. coli BL21(DE3)) | Assay 3 (% Remaining at 24 h) [2] | Selective delivery to the colon (conclusion from Table 2) ([2]; from SGF, SIF and colonic material stability) | Assay 1 (SGF) (% Remaining @ 1 hours) [3] | % Remaining in ClbP Positve Relative to Media-Only [4]
1 | CCCC(=O)N[C@H](CC(N)=O)C(=O)N[C@@H](C)C(=O)OC [Example 12, Methyl butyryl-D-asparaginyl-L-alaninate] (Butyryl-[dN]-Ala-OMe) | C (>75% of the tested compound remaining) | + (between 25-75% compound remaining in the 20 μM WT ClbP reaction relative to the no-enzyme control) | A (<25% of the tested compound remaining) | can be selectively delivered to the colon | – | –
2 | CCCC(=O)N[C@H](CC(N)=O)C(=O)N[C@@H](C)CCC(=O)Oc1ccccc1 [Example 25, Phenyl (S)-4-((R)-4-amino-2-butyramido-4-oxobutanamido)pentanoate] | – | − (>75% compound remaining in the 20 μM WT ClbP reaction relative to the no-enzyme control) | B (25-75% of the tested compound remaining) | – | C (>75% of the tested compound remaining) | + (between 25-75% compound remaining in the 20 μM WT ClbP reaction relative to the no-enzyme control)
3 | CCCCCCCCCCCCCC(=O)N[C@H](CC(N)=O)C(=O)NCCC(C)(C)C(=O)OC [Example 34, Methyl (R)-4-(4-amino-4-oxo-2-tetradecanamidobutanamido)-2,2-dimethylbutanoate] | – | − (>75% compound remaining in the 20 μM WT ClbP reaction relative to the no-enzyme control) | C (>75% of the tested compound remaining) | – | C (>75% of the tested compound remaining) | + (between 25-75% compound remaining in the 20 μM WT ClbP reaction relative to the no-enzyme control)
4 | CCCCCCCC(=O)N[C@H](CC(N)=O)C(=O)N[C@@H](C)CNC(=O)OC [Example 45, Methyl ((S)-2-((R)-4-amino-2-octanamido-4-oxobutanamido)propyl)carbamate] | – | − (>75% compound remaining in the 20 μM WT ClbP reaction relative to the no-enzyme control) | B (25-75% of the tested compound remaining) | – | – | + (between 25-75% compound remaining in the 20 μM WT ClbP reaction relative to the no-enzyme control)
5 | CCCCCCOC(=O)N[C@H](CC(N)=O)C(=O)N[C@@H](C)C(=O)OC [Example 52, Methyl ((hexyloxy)carbonyl)-D-asparaginyl-L-alaninate] | – | ++ (<25% compound remaining in the 20 μM WT ClbP reaction relative to the control) | B (25-75% of the tested compound remaining) | – | – | ++ (<25% compound remaining in the 20 μM WT ClbP reaction relative to the control)
6 | CCCCCCCC(=O)N[C@H](CC(N)=O)C(=O)NCCNC(=O)n1cc(F)c(=O)[nH]c1=O [Example 55, (R)—N1-(2-(5-fluoro-2,4-dioxo-1,2,3,4-tetrahydropyrimidine-1-carboxamido)ethyl)-2-octanamidosuccinamide] | A (<25% of the tested compound remaining) | – | A (<25% of the tested compound remaining) | – | C (>75% of the tested compound remaining) | –
7 | CCCCCCCCCCCCOC(=O)N[C@H](CC(N)=O)C(=O)N[C@@H](C)C(=O)OC [Example 59, Methyl ((dodecyloxy)carbonyl)-D-asparaginyl-L-alaninate] | – | ++ (<25% compound remaining in the 20 μM WT ClbP reaction relative to the control) | C (>75% of the tested compound remaining) | – | – | ++ (<25% compound remaining in the 20 μM WT ClbP reaction relative to the control)
8 | CCCCCCCCCCCCNC(=O)N[C@H](CC(N)=O)C(=O)N[C@@H](C)C(=O)OC [Example 60, Methyl (dodecylcarbamoyl)-D-asparaginyl-L-alaninate] | – | + (between 25-75% compound remaining in the 20 μM WT ClbP reaction relative to the no-enzyme control) | C (>75% of the tested compound remaining) | – | – | + (between 25-75% compound remaining in the 20 μM WT ClbP reaction relative to the no-enzyme control)
9 | CCCCCCCC(=O)N[C@H](CC(N)=O)C(=O)NCCCC(=O)Oc1ccc2c(C)cc(=O)oc2c1 [Example 67, 4-methyl-2-oxo-2H-chromen-7-yl (R)-4-(4-amino-2-octanamido-4-oxobutanamido)butanoate] | A (<25% of the tested compound remaining) | – | – | – | C (>75% of the tested compound remaining) | –
10 | CCCCCCCC(=O)N[C@H](CC(N)=O)C(=O)NCCNC(=O)Oc1ccc2c(C)cc(=O)oc2c1 [Example 69, 4-methyl-2-oxo-2H-chromen-7-yl (R)-(2-(4-amino-2-octanamido-4-oxobutanamido)ethyl)carbamate] | A (<25% of the tested compound remaining) | – | A (<25% of the tested compound remaining) | – | C (>75% of the tested compound remaining) | –
